Experimental data as given in PMC10376326, “Novel Acylselenourea Derivatives: Dual Molecules with Anticancer and Radical Scavenging Activity” (Antioxidants, 2023).

Key:
[1] = tested on: MDA-MB-231 (breast) cancer cell line; assay: MTT cell viability assay, MDA-MB-231; type: cell-based, human; settings: Breast, MTT, 48 h; read-out: IC50 MDA-MB-231
In short: (§1)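 MDA-MB-231, HTB-54 and DU-145 grown in RPMI 1640, HT-29 in McCoy's 5A (10% FBS). Output is % cell growth; IC50 determined; ≥3 experiments in quadruplicate.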

[2] = tested on: HTB-54 (lung) cancer cell line; assay: MTT cell viability assay, HTB-54; type: cell-based, human; settings: IC50 (BEAS-2B)/IC50 (HTB-54)
[3] = tested on: HTB-54 (lung) cancer cell line; design: method as in PMID 22397496; settings: cited from earlier work
[4] = tested on: DU-145 (prostate) cancer cell line; assay: MTT cell viability assay, DU-145; type: cell-based, human; settings: Prostate, MTT, 48 h; read-out: IC50 DU-145
In short: as §1

[5] = tested on: non-malignant BEAS-2B lung cell line; design: method as in doi:10.30918/IRJMMS.72.19.022; settings: cited from earlier work

N.N.[Cl][Pt][Cl] [Cisplatin, reference compound]
IC50 [1]: 5.5 ± 0.5 µM | SI [2]: 0.63 | IC50 [3]: 13.7 µM | IC50 [4]: 6.2 ± 0.1 µM | IC50 [5]: 8.63 µM
